Data published in patent publication US8173635B2, “Kinase inhibitors” (Vertex Pharmaceuticals Incorporated, priority 2007, dated 2012).

Legend:
Type in all cases: biochemical
PKC delta kinase = PKC delta kinase (Homo sapiens, UniProt Q05655); experiment: PKC delta kinase inhibition, coupled-enzyme NADH absorbance assay (Ki); conditions: 150 μM ATP, 46 nM PKC delta, 30° C.; read-out: Ki PKC delta
Description: (§1) An assay buffer solution was prepared which consisted of 100 mM HEPES (pH 7.5), 10 mM MgCl2, 25 mM NaCl, 0.1 mM EDTA and 0.01% Brij. […] To 16 μL of this enzyme buffer, in a 384 well plate, was added 1 μL of VRT stock solution in DMSO. The mixture was allowed to equilibrate for 10 mins at 30° C. […] Ki values were calculated from initial rate data by non-linear regression using the Prism software package (Prism 4.0a, Graphpad Software, San Diego, Calif.).

PKC alpha kinase = PKC alpha kinase (Homo sapiens, UniProt P17252); experiment: PKC alpha kinase inhibition, coupled-enzyme NADH absorbance assay (Ki); conditions: 130 μM ATP, 4.5 nM PKC alpha, 30° C.; read-out: Ki PKC alpha
Description: as §1, with “EDTA, 100 μM CaCl2” for “EDTA”, “C. The enzyme reaction was initiated by the addition of 16 μL stock ATP solution prepared in assay buffer to a final assay concentration of 130 μM. Initial rate data was determined from the rate of change of absorbance at 340 nm (corresponding to stoichiometric consumption of NADH) using a Molecular Devices Spectramax plate reader (Sunnyvale, Calif.) over 15 mins at 30° C.” for “C.”

PKC theta kinase = PKC theta kinase (Homo sapiens, UniProt Q04759); experiment: PKC theta kinase inhibition, coupled-enzyme NADH absorbance assay (Ki); conditions: 240 μM ATP, 18 nM PKC theta, 30° C.; read-out: Ki PKC theta
Chain of PKC theta kinase (Q04759 whole entry): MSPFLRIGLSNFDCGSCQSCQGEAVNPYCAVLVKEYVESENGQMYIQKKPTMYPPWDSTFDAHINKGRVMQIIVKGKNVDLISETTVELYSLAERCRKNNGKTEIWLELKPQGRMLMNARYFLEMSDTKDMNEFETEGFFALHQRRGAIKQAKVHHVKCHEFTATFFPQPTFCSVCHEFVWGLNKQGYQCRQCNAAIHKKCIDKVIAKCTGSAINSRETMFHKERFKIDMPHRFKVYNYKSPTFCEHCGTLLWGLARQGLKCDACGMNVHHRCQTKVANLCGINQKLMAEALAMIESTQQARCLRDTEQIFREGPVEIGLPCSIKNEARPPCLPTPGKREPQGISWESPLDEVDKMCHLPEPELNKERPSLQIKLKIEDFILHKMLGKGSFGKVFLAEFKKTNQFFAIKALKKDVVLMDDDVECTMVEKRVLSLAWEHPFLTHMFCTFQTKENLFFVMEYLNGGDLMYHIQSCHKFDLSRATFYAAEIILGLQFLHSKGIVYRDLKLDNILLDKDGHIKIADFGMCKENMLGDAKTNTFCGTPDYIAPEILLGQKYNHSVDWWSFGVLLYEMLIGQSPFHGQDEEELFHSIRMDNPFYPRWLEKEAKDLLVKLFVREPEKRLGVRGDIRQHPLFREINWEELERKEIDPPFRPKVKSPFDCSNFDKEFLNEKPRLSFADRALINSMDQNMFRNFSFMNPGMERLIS
Description: as §1, with “To 60” for “To 16”, “added 2” for “added 1”

Chain of PKC delta kinase (Q05655 whole entry): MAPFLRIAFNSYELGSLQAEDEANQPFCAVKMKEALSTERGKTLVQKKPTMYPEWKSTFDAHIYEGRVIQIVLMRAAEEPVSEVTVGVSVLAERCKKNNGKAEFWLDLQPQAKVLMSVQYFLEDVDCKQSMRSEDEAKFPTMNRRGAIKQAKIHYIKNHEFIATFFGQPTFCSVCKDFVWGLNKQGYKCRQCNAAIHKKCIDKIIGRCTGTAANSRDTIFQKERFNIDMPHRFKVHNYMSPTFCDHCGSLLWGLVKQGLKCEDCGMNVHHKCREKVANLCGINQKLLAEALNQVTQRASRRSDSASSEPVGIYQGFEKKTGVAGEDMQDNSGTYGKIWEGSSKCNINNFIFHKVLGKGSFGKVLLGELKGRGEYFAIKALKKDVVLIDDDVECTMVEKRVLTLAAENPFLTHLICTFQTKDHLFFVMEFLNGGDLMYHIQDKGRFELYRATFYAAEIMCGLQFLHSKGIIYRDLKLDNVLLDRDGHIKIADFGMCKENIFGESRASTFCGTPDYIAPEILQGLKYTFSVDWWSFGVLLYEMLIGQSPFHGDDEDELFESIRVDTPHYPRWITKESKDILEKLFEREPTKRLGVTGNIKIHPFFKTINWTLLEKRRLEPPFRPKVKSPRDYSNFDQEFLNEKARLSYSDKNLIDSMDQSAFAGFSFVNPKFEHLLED

Row | SMILES | Ki (PKC delta kinase) [nM] | Ki (PKC alpha kinase) [nM] | Ki (PKC theta kinase) [nM]
1 | N#CC1(c2cccc(-c3ccnc4[nH]ncc34)n2)CCNCC1 [Compound 2] | < 500 |  | < 50
2 | CC(C)(C#N)c1cccc(-c2ccnc3[nH]ncc23)c1 [Compound 4, 2-(3-(1H-pyrazolo[3,4-b]pyridin-4-yl)phenyl)-2-methylpropanenitrile] | < 2800 |  | < 50
3 | CC(=O)N1CCN(c2cc(-c3ccnc4[nH]ncc34)cc(C(C)(C)C#N)c2)CC1 [Compound 7] | > 2800 |  | > 2800
4 | CC(C)(C#N)c1cc(-c2ccnc3[nH]ncc23)cc(N2CCNCC2)c1 [Compound 8] | > 2800 |  | < 500
5 | CC(C)(C#N)c1cc(Nc2ccccc2)cc(-c2ccnc3[nH]ncc23)c1 [Compound 10] | > 2800 |  | < 500
6 | CC(C)(C#N)c1cc(-c2ccnc3[nH]ncc23)cc(N2CCC2)c1 [Compound 11] | > 2800 | > 2800 | < 500
7 | CC(C)(C#N)c1cc(NCc2ccccc2)cc(-c2ccnc3[nH]ncc23)c1 [Compound 12] |  |  | < 2800
8 | CC(C)(C#N)c1cc(N)cc(-c2ccnc3[nH]ncc23)c1 [Compound 13] | < 2800 | < 2800 | < 500
9 | CC(C)(C#N)c1cc(NC2CNC2)cc(-c2ccnc3[nH]ncc23)c1 [Compound 14] |  |  | < 500
10 | CC(C)(C#N)c1cc(-c2ccnc3[nH]ncc23)cc(C(O)c2ccccc2)c1 (centres unmarked) [Compound 15] |  |  | < 2800
11 | CC(C)(C#N)c1cc(NCCN)cc(-c2ccnc3[nH]ncc23)c1 [Compound 17] | > 2800 | > 2800 | < 500
12 | CC(C)(C#N)c1cc(NC2CCNCC2)cc(-c2ccnc3[nH]ncc23)c1 [Compound 20] |  |  | < 500
13 | CC(O)c1cc(-c2ccnc3[nH]ncc23)cc(C(C)(C)C#N)c1 (centres unmarked) [Compound 22] | > 2800 | > 2800 | < 500
14 | N#CCc1cccc(-c2ccnc3[nH]ncc23)c1 [Compound 23] |  |  | < 500
15 | CC(=O)c1cc(-c2ccnc3[nH]ncc23)cc(C(C)(C)C#N)c1 [Compound 24] |  |  | < 500
16 | CNCc1cc(Br)cc(-c2ccnc3[nH]ncc23)c1 [Compound 25] |  |  | < 500
17 | OC1CCc2cc(-c3ccnc4[nH]ncc34)ccc21 (centres unmarked) [Compound 27] |  |  | < 2800

Row | SMILES | Ki (PKC delta kinase) [nM] | Ki (PKC alpha kinase) [nM] | Ki (PKC theta kinase) [nM]
18 | OC1CCc2ccc(-c3ccnc4[nH]ncc34)cc21 (centres unmarked) [Compound 29] |  |  | > 2800
19 | CCC(C)(C#N)c1cc(Br)cc(-c2ccnc3[nH]ncc23)c1 (centres unmarked) [Compound 30] | < 2800 | < 2800 | < 500
20 | CC(C)(CN)c1cccc(-c2ccnc3[nH]ncc23)c1 [Compound 31, 2-(3-(1H-pyrazolo[3,4-b]pyridin-4-yl)phenyl)-2-methylpropan-1-amine] | < 500 | < 2800 | < 50
21 | CC(C)(CN)c1cc(-c2ccnc3[nH]ncc23)cc(N2CCCCC2)c1 [Compound 33] |  |  | > 2800
22 | CC(C)(CN)c1cc(Br)cc(-c2ccnc3[nH]ncc23)c1 [Compound 34] | < 500 | < 2800 | < 50
23 | CC(C)(CN)c1cc(-c2ccccc2)cc(-c2ccnc3[nH]ncc23)c1 [Compound 35] |  |  | < 2800
24 | CC(O)c1cc(-c2ccnc3[nH]ncc23)cc(C(C)(C)CN)c1 (centres unmarked) [Compound 39] | > 2800 | > 2800 | < 500
25 | C#Cc1cc(-c2ccnc3[nH]ncc23)cc(C(C)(C)CN)c1 [Compound 40] | < 500 | < 2800 | < 500
26 | CCC(C)(CN)c1cccc(-c2ccnc3[nH]ncc23)c1 (centres unmarked) [Compound 41] | < 50 | < 500 | < 50
27 | CC(C)C(O)c1cc(-c2ccnc3[nH]ncc23)cc(C(C)(C)CN)c1 (centres unmarked) [Compound 43] |  |  | < 2800
28 | CCc1cc(-c2ccnc3[nH]ncc23)cc(C(C)(C)CN)c1 [Compound 44] | < 2800 | < 2800 | < 500
29 | CC(C)CC(C)(CN)c1cccc(-c2ccnc3[nH]ncc23)c1 (centres unmarked) [Compound 45] | < 500 | < 500 | < 50
30 | CCC(CC)(CN)c1cccc(-c2ccnc3[nH]ncc23)c1 [Compound 47] | < 500 | < 500 | < 50
31 | CC(C)(C#N)c1cc(-c2ccnc3[nH]ncc23)cc(C2CCCCC2)c1 [Compound 58] |  |  | < 2800
32 | CC(C)(C#N)c1cc(NCCCNC(=O)OCc2ccccc2)cc(-c2ccnc3[nH]ncc23)c1 [Compound 82] |  |  | < 2800
33 | Cc1cc(-c2ccnc3[nH]ncc23)cc(C2(CN)CCCC2)c1 [Compound 189] |  | < 2800 | < 50

Other lines, results leading:

Row | Ki (PKC delta kinase) [nM] | Ki (PKC alpha kinase) [nM] | Ki (PKC theta kinase) [nM] | SMILES
34 | < 500 | < 500 | < 50 | CC(C)(C#N)c1cccc(-c2ccnc3[nH]ncc23)n1 [Compound 1, 2-(6-(1H-pyrazolo[3,4-b]pyridin-4-yl)pyridin-2-yl)-2-methylpropanenitrile]
35 | < 500 |  | < 50 | N#CC1(c2cccc(-c3ccnc4[nH]ncc34)n2)CCNC1 (centres unmarked) [Compound 3]
36 | < 2800 |  | < 50 | Cc1cc(-c2ccnc3[nH]ncc23)cc(C(C)(C)C#N)c1 [Compound 5]
37 | < 2800 |  | < 500 | N#CC1(c2cccc(-c3ccnc4[nH]ncc34)c2)CCNCC1 [Compound 6]
38 |  |  | < 2800 | CC(C)(C#N)c1cc(-c2ccnc3[nH]ncc23)cc(N2CCCCC2)c1 [Compound 9]
39 |  |  | < 2800 | CC(C)(C#N)c1cc(C(=O)c2ccccc2)cc(-c2ccnc3[nH]ncc23)c1 [Compound 16]
40 | < 2800 | < 2800 | < 50 | CC(C)(C#N)c1cc(Br)cc(-c2ccnc3[nH]ncc23)c1 [Compound 18]
41 | > 2800 | > 2800 | < 500 | CC(C)C(O)c1cc(-c2ccnc3[nH]ncc23)cc(C(C)(C)C#N)c1 (centres unmarked) [Compound 19]
42 | > 2800 | > 2800 | < 500 | CC(C)(C#N)c1cc(NCCCN)cc(-c2ccnc3[nH]ncc23)c1 [Compound 21]
43 |  |  | < 2800 | O=C1CCc2cc(-c3ccnc4[nH]ncc34)ccc21 [Compound 26]
44 |  |  | < 500 | O=C1CCc2ccc(-c3ccnc4[nH]ncc34)cc21 [Compound 28]
45 | < 500 | < 500 | < 50 | Cc1cc(-c2ccnc3[nH]ncc23)cc(C(C)(C)CN)c1 [Compound 32]
46 | < 2800 | < 2800 | < 500 | C=Cc1cc(-c2ccnc3[nH]ncc23)cc(C(C)(C)CN)c1 [Compound 36]
47 |  |  | < 2800 | CC(C)(CN)c1cc(C2=CCCCC2)cc(-c2ccnc3[nH]ncc23)c1 [Compound 37]
48 |  |  | < 500 | CC(C)(CN)c1cc(-c2ccc[nH]2)cc(-c2ccnc3[nH]ncc23)c1 [Compound 38]
49 | < 2800 | < 2800 | < 500 | CCCc1cc(-c2ccnc3[nH]ncc23)cc(C(C)(C)CN)c1 [Compound 42]
50 | < 500 | < 500 | < 50 | CC(CN)(c1cccc(-c2ccnc3[nH]ncc23)c1)C1CCCC1 (centres unmarked) [Compound 46]
51 | < 500 | < 500 | < 50 | CC(C)C(C)(CN)c1cccc(-c2ccnc3[nH]ncc23)c1 (centres unmarked) [Compound 48]
52 |  |  | < 2800 | CC(C)(C#N)c1cc(-c2ccccc2)cc(-c2ccnc3[nH]ncc23)c1 [Compound 53, 2-(5-(1H-pyrazolo[3,4-b]pyridin-4-yl)biphenyl-3-yl)-2-methylpropanenitrile]
53 |  |  | > 2800 | CC(C)(C#N)c1cc(C2=CCCCC2)cc(-c2ccnc3[nH]ncc23)c1 [Compound 56]
54 |  |  | < 2800 | C/C=C/c1cc(CNC)cc(-c2ccnc3[nH]ncc23)c1 [Compound 60]
55 |  |  | < 500 | C#Cc1cc(-c2ccnc3[nH]ncc23)cc(C(C)(C)C#N)c1 [Compound 61]
56 |  |  | < 500 | C=CCc1cc(CNC)cc(-c2ccnc3[nH]ncc23)c1 [Compound 63]
57 |  |  | < 500 | C=C(C)c1cc(-c2ccnc3[nH]ncc23)cc(C(C)(C)C#N)c1 [Compound 65]
58 |  | < 2800 | < 500 | CCC(C#N)(CC)c1cccc(-c2ccnc3[nH]ncc23)c1 [Compound 68]
59 |  |  | < 2800 | CC(C)(C)OC(=O)NCCNc1cc(-c2ccnc3[nH]ncc23)cc(C(C)(C)C#N)c1 [Compound 81]
60 |  |  | < 2800 | CC(C)(C#N)c1cc(-c2ccnc3n[nH]cc23)ccc1Br [Compound 83]
61 | > 1200 | > 1200 |  | CCCc1cc(-c2ccnc3[nH]nc(C(F)(F)F)c23)cc(C2(C#N)CC2)c1 [Compound 313]
